System: female 129S6/SvEv mice
Experiment: Forced swim test (FST), immobility time, after stress
[1] = 0.1 mg/kg, 1 week prophylactic drug
[2] = 0.3 mg/kg, 1 week prophylactic drug
[3] = 2.5 mg/kg, 1 week prophylactic drug
[4] = 10 mg/kg, 1 week prophylactic drug
[5] = Forced Swim Test Day 1, Dunnett test Sal vs. drug (0.025), 1 week prophylactic drug
[6] = Forced Swim Test Day 1, Dunnett test Sal vs. drug (0.075), 1 week prophylactic drug
[7] = Forced Swim Test Day 1, Dunnett test Sal vs. drug (0.1), 1 week prophylactic drug
[8] = Forced Swim Test Day 1, Dunnett test Sal vs. drug (0.3), 1 week prophylactic drug
[9] = Forced Swim Test Day 1, Dunnett test Sal vs. drug (2.5), 1 week prophylactic drug
[10] = Forced Swim Test Day 1, Dunnett test Sal vs. drug (10), 1 week prophylactic drug

N[C@]1(c2ccccc2Cl)CCC[C@H](O)C1=O [(2S,6S)-HNK]
p, Sal vs. drug, Dunnett test: Immobility Time (min 1), Forced Swim Test Day 2 [1]: 0.0291
p, Sal vs. drug, Dunnett test: Immobility Time (min 1-6), Forced Swim Test Day 2 [1]: 0.2191
p, Sal vs. drug, Dunnett test: Immobility Time (min 2), Forced Swim Test Day 2 [1]: 0.4741
p, Sal vs. drug, Dunnett test: Immobility Time (min 4), Forced Swim Test Day 2 [1]: 0.9995
p, Sal vs. drug, Dunnett test: Immobility Time (min 5), Forced Swim Test Day 2 [1]: 0.9990
p, Sal vs. drug, Dunnett test: Immobility Time (min 6), Forced Swim Test Day 2 [1]: 0.9952
p, Sal vs. drug, Dunnett test: Immobility Time Average (min 3-6), Forced Swim Test Day 2 [1]: 0.9623
p, Sal vs. drug, Dunnett test: Immobility Time (min 1), Forced Swim Test Day 2 [2]: 0.2627
p, Sal vs. drug, Dunnett test: Immobility Time (min 1-6), Forced Swim Test Day 2 [2]: 0.9993
p, Sal vs. drug, Dunnett test: Immobility Time (min 2), Forced Swim Test Day 2 [2]: 0.7509
p, Sal vs. drug, Dunnett test: Immobility Time (min 4), Forced Swim Test Day 2 [2]: 0.9997
p, Sal vs. drug, Dunnett test: Immobility Time (min 5), Forced Swim Test Day 2 [2]: 0.9882
p, Sal vs. drug, Dunnett test: Immobility Time (min 6), Forced Swim Test Day 2 [2]: 0.4546
p, Sal vs. drug, Dunnett test: Immobility Time Average (min 3-6), Forced Swim Test Day 2 [2]: 0.9999
p, Sal vs. drug, Dunnett test: Immobility Time (min 1), Forced Swim Test Day 2 [3]: 0.9998
p, Sal vs. drug, Dunnett test: Immobility Time (min 1-6), Forced Swim Test Day 2 [3]: 0.5400
p, Sal vs. drug, Dunnett test: Immobility Time (min 2), Forced Swim Test Day 2 [3]: >0.9999
p, Sal vs. drug, Dunnett test: Immobility Time (min 4), Forced Swim Test Day 2 [3]: 0.8764
p, Sal vs. drug, Dunnett test: Immobility Time (min 5), Forced Swim Test Day 2 [3]: 0.6601
p, Sal vs. drug, Dunnett test: Immobility Time (min 6), Forced Swim Test Day 2 [3]: 0.9992
p, Sal vs. drug, Dunnett test: Immobility Time Average (min 3-6), Forced Swim Test Day 2 [3]: 0.9957
p, Sal vs. drug, Dunnett test: Immobility Time (min 1), Forced Swim Test Day 2 [4]: 0.6616
p, Sal vs. drug, Dunnett test: Immobility Time (min 1-6), Forced Swim Test Day 2 [4]: >0.9999
p, Sal vs. drug, Dunnett test: Immobility Time (min 2), Forced Swim Test Day 2 [4]: 0.9991
p, Sal vs. drug, Dunnett test: Immobility Time (min 4), Forced Swim Test Day 2 [4]: 0.9999
p, Sal vs. drug, Dunnett test: Immobility Time (min 5), Forced Swim Test Day 2 [4]: 0.9877
p, Sal vs. drug, Dunnett test: Immobility Time (min 6), Forced Swim Test Day 2 [4]: 0.9994
p, Sal vs. drug, Dunnett test: Immobility Time Average (min 3-6), Forced Swim Test Day 2 [4]: 0.9999
* (significance), Immobility Time (min 1) [5]: ** (** p<0.01)
p, Immobility Time (min 1) [5]: 0.0031
p, Immobility Time (min 1-6) [5]: 0.8484
p, Immobility Time (min 3) [5]: 0.9997
p, Immobility Time (min 4) [5]: >0.9999
p, Immobility Time (min 5) [5]: >0.9999
p, Immobility Time (min 6) [5]: 0.9993
p, Immobility Time Average (min 3-6) [5]: 0.9997
p, Immobility Time (min 1) [6]: 0.0820
p, Immobility Time (min 1-6) [6]: 0.0650
p, Immobility Time (min 3) [6]: 0.9489
p, Immobility Time (min 4) [6]: 0.9482
p, Immobility Time (min 5) [6]: 0.9436
p, Immobility Time (min 6) [6]: 0.6982
p, Immobility Time Average (min 3-6) [6]: 0.7901
* (significance), Immobility Time (min 1) [7]: *** (*** p<0.0001)
p, Immobility Time (min 1) [7]: <0.0001
p, Immobility Time (min 1-6) [7]: 0.5664
p, Immobility Time (min 3) [7]: 0.9993
p, Immobility Time (min 4) [7]: 0.9993
p, Immobility Time (min 5) [7]: 0.9869
p, Immobility Time (min 6) [7]: >0.9999
p, Immobility Time Average (min 3-6) [7]: 0.9992
* (significance), Immobility Time (min 1) [8]: * (* p<0.05)
* (significance), Immobility Time (min 1-6) [8]: * (* p<0.05)
p, Immobility Time (min 1) [8]: 0.0277
p, Immobility Time (min 1-6) [8]: 0.0361
p, Immobility Time (min 3) [8]: 0.4573
p, Immobility Time (min 4) [8]: 0.8163
p, Immobility Time (min 5) [8]: 0.9482
p, Immobility Time (min 6) [8]: 0.6194
p, Immobility Time Average (min 3-6) [8]: 0.5532
* (significance), Immobility Time (min 1) [9]: * (* p<0.05)
p, Immobility Time (min 1) [9]: 0.0147
p, Immobility Time (min 1-6) [9]: 0.9878
p, Immobility Time (min 3) [9]: 0.9995
p, Immobility Time (min 4) [9]: 0.9958
p, Immobility Time (min 5) [9]: 0.9958
p, Immobility Time (min 6) [9]: 0.9992
p, Immobility Time Average (min 3-6) [9]: 0.9990
* (significance), Immobility Time (min 1) [10]: ** (** p<0.01)
p, Immobility Time (min 1) [10]: 0.0064
p, Immobility Time (min 1-6) [10]: >0.9999
p, Immobility Time (min 3) [10]: 0.9307
p, Immobility Time (min 4) [10]: 0.9497
p, Immobility Time (min 5) [10]: 0.9952
p, Immobility Time (min 6) [10]: 0.5393
p, Immobility Time Average (min 3-6) [10]: 0.8035
Immobility on FST Day 2 vs saline (all doses of (2S,6S)-HNK and all other dose groups, 1 week before CFC, female mice): failed to reduce average immobility
Prophylactic efficacy against stress-induced depressive-like behavior (single injection 1 week before stressor, female mice): but not (2S,6S)-HNK

Reference: US11491120B2, “Pharmacological prophylactics against stress-induced affective disorders in females” (The Trustees of Columbia University in the City of New York, priority 2017, dated 2022)
